Source: US7074802B2, “Pyrimidine derivatives as selective inhibitors of cox-2” (Glaxo Group Limited, priority 2001, dated 2006)
pIC50: −log10 of the molar value.

Legend:
microsomal h-COX2 = molecular target: T1, microsomal h-COX2 (Homo sapiens, UniProt P35354); assay: Microsomal assay, inhibition of COX-2; format: biochemical; conditions: microsomal preparation from baculovirus infected SF9 cells; PGE2 by EIA
T1 construct: made in house; host or cells: baculovirus infected SF9 cells (microsomal preparation)
T1 sequence (P35354 18-604): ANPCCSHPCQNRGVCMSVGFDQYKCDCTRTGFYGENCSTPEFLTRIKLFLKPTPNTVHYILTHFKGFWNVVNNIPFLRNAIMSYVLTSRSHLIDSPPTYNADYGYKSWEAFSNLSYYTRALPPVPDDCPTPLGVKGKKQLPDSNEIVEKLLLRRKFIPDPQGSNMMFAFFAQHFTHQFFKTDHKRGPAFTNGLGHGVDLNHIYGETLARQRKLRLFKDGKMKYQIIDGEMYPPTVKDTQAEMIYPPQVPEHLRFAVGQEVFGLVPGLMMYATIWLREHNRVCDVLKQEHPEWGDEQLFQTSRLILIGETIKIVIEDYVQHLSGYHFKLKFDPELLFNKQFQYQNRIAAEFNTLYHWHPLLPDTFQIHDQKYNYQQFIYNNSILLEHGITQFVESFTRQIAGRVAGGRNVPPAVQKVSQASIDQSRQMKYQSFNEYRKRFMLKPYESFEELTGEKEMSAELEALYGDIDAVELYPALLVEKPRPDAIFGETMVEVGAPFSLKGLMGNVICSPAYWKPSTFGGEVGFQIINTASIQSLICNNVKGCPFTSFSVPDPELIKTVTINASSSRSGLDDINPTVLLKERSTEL
Protocol: (§1) Inhibitory activity against microsomal h-COX2 was assessed against a microsomal preparation from baculovirus infected SF9 cells. An aliquot of microsomal preparation was thawed slowly on ice and a 1/40,000 dilution prepared from it into the assay buffer (sterile water, degassed with argon containing 100 mM HEPES (pH 7.4), 10 mM EDTA (pH7.4), 1 mM phenol, 1 mM reduced glutathione, 20 mg/ml gelatin and 0.001 mM Hematin). Once diluted the enzyme solution was then sonicated for 5 seconds (Branson sonicator, setting 4, 1 cm tip) to ensure a homogeneous suspension. 155 μl enzyme solution was then added to each well of a 96-well microtitre plate containing either 5 μl test compound (40× required test concentration) or 5 μl DMSO for controls. Plates were then mixed and incubated at room temperature for 1 hour. Following the incubation period, 40 μl of 0.5 μM arachidonic acid was added to each well to give a final concentration of 0.1 μM. Plates were then mixed and incubated for exactly 10 minutes (room temperature) prior to addition of 25 μl 1M HCl (hydrochloric acid) to each well to stop the reaction. 25 μl of 1M NaOH (sodium hydroxide) was then added to each well to neutralise the solution prior to determination of PGE2 levels by enzyme immunoassay (EIA).
(§2) The following IC50 values for inhibition of COX-2 and COX-1 were obtained from the microsomal assay for compounds of the invention: […]

COX-1 = COX-1 (Homo sapiens, UniProt P23219); assay: Microsomal assay, inhibition of COX-1; format: biochemical
Chain of COX-1 (P23219 24-599): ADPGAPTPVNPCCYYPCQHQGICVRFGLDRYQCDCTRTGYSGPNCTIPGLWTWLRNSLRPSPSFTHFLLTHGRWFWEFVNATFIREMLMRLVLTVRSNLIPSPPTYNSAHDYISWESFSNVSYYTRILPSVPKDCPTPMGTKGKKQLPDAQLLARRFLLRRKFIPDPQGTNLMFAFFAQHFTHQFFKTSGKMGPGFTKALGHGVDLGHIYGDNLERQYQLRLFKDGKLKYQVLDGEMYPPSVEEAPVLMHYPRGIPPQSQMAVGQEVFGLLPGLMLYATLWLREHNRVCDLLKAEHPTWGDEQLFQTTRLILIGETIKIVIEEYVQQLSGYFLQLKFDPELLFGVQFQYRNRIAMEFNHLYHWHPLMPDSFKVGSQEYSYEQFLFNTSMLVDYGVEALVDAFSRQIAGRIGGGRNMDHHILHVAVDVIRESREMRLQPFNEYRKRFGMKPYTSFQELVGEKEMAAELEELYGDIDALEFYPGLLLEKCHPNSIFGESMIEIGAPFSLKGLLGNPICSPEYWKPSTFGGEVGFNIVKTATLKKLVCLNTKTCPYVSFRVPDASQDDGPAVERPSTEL
Protocol: as §1, §2

| Compound | pIC50 (microsomal h-COX2) | pIC50 (COX-1) |
| --- | --- | --- |
| CCCCNc1nc(CF)cc(-c2ccc(S(C)(=O)=O)cc2)n1 [Example 1, N-Butyl-4-(fluoromethyl)-6-[4-(methylsulfonyl)phenyl]pyrimidin-2-amine] | 6.12 | < 5.00 |
| CCCCNc1nc(-c2ccc(S(C)(=O)=O)cc2)cc(C(F)F)n1 [Example 2, N-butyl-4-(difluoromethyl)-6-[4-(methylsulfonyl)phenyl]pyrimidin-2-amine] | 7.77 | < 4.03 |
